From publication PMC8744835, “Sterically Hindered Quaternary Phosphonium Salts (QPSs): Antimicrobial Activity and Hemolytic and Cytotoxic Properties” (International Journal of Molecular Sciences, 2021)

Columns and labels:
[1] = tested on: methicillin-resistant S. aureus MRSA-2; test: Antimicrobial activity, serial dilution technique in Mueller–Hinton Broth 2; format: cell-based, Staphylococcus aureus; settings: - means non-active; for MIC: read-out: Minimum Inhibitory Concentration (MIC), MRSA-2
Experimental: (§1) The synthesized compounds were tested for antimicrobial activity against a number of Gram-positive bacteria, Staphylococcus aureus (Sa), Bacillus cereus (Bc) and Enterococcus faecalis (Ef), and Gram-negative bacteria, Escherichia coli (Ec) and Pseudomonas aeruginosa (Pa), including the methicillin-resistant strains S. aureus MRSA-1 (resistant to fluoroquinolones and beta-lactams) and MRSA-2 (resistant to beta-lactams). The methicillin-resistant strains S. aureus were transferred by the Republican Clinical Hospital of the Republic of Tatarstan (Kazan). The fungicidal activity against Candida albicans (Ca) and Trichophyton mentagrophytes var. gypseum (Tm) was studied. These pathogens were chosen because they are the most widespread in the food industry and the healthcare system.
(§2) The antimicrobial activity of the QPSs was determined using the serial dilution technique in Mueller–Hinton Broth 2. The cultures used for testing included the Gram-positive bacteria Staphylococcus aureus ATCC 6538P FDA 209P, Enterococcus faecalis ATCC 2921 and Bacillus cereus ATCC 10702 NCTC 8035, the Gram-negative bacteria Escherichia coli ATCC 25922 and Pseudomonas aeruginosa ATCC 9027, and the fungi Trichophyton mentagrophytes var. gypseum 1773 and Candida albicans ATCC 10231; methicillin-resistant strains of S. aureus MRSA were obtained from hospital patients with chronic tonsillitis (MRSA-1) and sinusitis (MRSA-2) in the Republican Clinical Hospital (Kazan, Russia). […] The bacterial load was 3.0 × 10^5 cfu/mL. The results were recorded every 24 h for 5 days. The cultures were incubated at 37 °C. The experiment was repeated three times. […] The minimum inhibitory concentration (MIC) was defined as the minimum concentration of a compound that inhibits the growth of the corresponding test micro-organism. The growth of bacteria as well as the absence of growth due to the bacteriostatic action of a compound was recorded.

[2] = tested on: methicillin-resistant S. aureus MRSA-1; test: as above; format: cell-based, Staphylococcus aureus; settings: - means non-active; for MIC: read-out: Minimum Inhibitory Concentration (MIC), MRSA-1
Experimental: as §1, §2

[3] = tested on: Escherichia coli ATCC 25922; test: as above; format: cell-based; settings: average of three ± SD, - means non-active
[4] = tested on: Enterococcus faecalis ATCC 2921; test: as above; format: cell-based; settings: average of three ± SD, - means non-active
Experimental: as §1, §2

[5] = tested on: Staphylococcus aureus ATCC 6538P FDA 209P; test: as above; format: cell-based; settings: average of three ± SD, - means non-active; for MBC: read-out: Minimum Bactericidal and Fungicidal Concentration (MBC, MFC), Sa
Experimental: as §1, §2

[6] = tested on: Pseudomonas aeruginosa ATCC 9027; test: as above; format: cell-based; settings: average of three ± SD, - means non-active; for MBC / MIC: Pseudomonas aeruginosa, ATCC9027, Pa; for MBC: read-out: Minimum Bactericidal and Fungicidal Concentration (MBC, MFC), Pa; for MIC: read-out: Minimum Inhibitory Concentration (MIC), Pa
Experimental: as §1, §2

[7] = tested on: Bacillus cereus ATCC 10702 NCTC 8035; test: as above; format: cell-based; settings: average of three ± SD, - means non-active; for MBC: read-out: Minimum Bactericidal and Fungicidal Concentration (MBC, MFC), Bc
Experimental: as §1, §2

[8] = tested on: Escherichia coli ATCC 25922; test: as above; format: cell-based; settings: average of three ± SD, - means non-active; remark: listed apart in the source
Experimental: as §1, §2

[9] = tested on: Trichophyton mentagrophytes var. gypseum 1773; test: Fungicidal activity, serial dilution technique; format: cell-based; settings: Tm, average of three ± SD, - means non-active
Experimental: as §1
(§3) The antimicrobial activity of the QPSs was determined using the serial dilution technique in Mueller–Hinton Broth 2. The cultures used for testing included the Gram-positive bacteria Staphylococcus aureus ATCC 6538P FDA 209P, Enterococcus faecalis ATCC 2921 and Bacillus cereus ATCC 10702 NCTC 8035, the Gram-negative bacteria Escherichia coli ATCC 25922 and Pseudomonas aeruginosa ATCC 9027, and the fungi Trichophyton mentagrophytes var. gypseum 1773 and Candida albicans ATCC 10231; methicillin-resistant strains of S. aureus MRSA were obtained from hospital patients with chronic tonsillitis (MRSA-1) and sinusitis (MRSA-2) in the Republican Clinical Hospital (Kazan, Russia). Ciprofloxacin and ketoconazole were purchased from Sigma-Aldrich. The bacterial load was 3.0 × 10^5 cfu/mL. The results were recorded every 24 h for 5 days. The cultures were incubated at 37 °C. The experiment was repeated three times. […] The minimum inhibitory concentration (MIC) was defined as the minimum concentration of a compound that inhibits the growth of the corresponding test micro-organism. The growth of bacteria as well as the absence of growth due to the bacteriostatic action of a compound was recorded.

[10] = tested on: Candida albicans ATCC 10231; test: Fungicidal activity, serial dilution technique; format: cell-based; settings: average of three ± SD, - means non-active; for MIC: read-out: Minimum Inhibitory Concentration (MIC), Ca
Experimental: as §1, §3

[11] = Staphylococcus aureus, MRSA, MRSA-2 (resistant to beta-lactams)
[12] = Staphylococcus aureus, MRSA, MRSA-1 (resistant to fluoroquinolones and beta-lactams)
[13] = Candida albicans, ATCC10231, Ca

SMILES	Minimum Bactericidal and Fungicidal Concentration (MBC, MFC), MRSA-2 ([1]; MRSA-2) [µg/mL]	MIC [1, 11] [µg/mL]	Minimum Bactericidal and Fungicidal Concentration (MBC, MFC), MRSA-1 ([2]; MRSA-1) [µg/mL]	MIC [2, 12] [µg/mL]	Minimum Bactericidal and Fungicidal Concentration (MBC, MFC), Ec [3] [µg/mL]	Minimum Bactericidal and Fungicidal Concentration (MBC, MFC), Ef [4] [µg/mL]	Minimum Inhibitory Concentration (MIC), Ef [4] [µg/mL]	MBC ([5]; Staphylococcus aureus, Sa) [µg/mL]	Minimum Inhibitory Concentration (MIC), Sa [5] [µg/mL]	MBC [6] [µg/mL]	MIC [6] [µg/mL]	MBC ([7]; Bacillus cereus, Bc) [µg/mL]	Minimum Inhibitory Concentration (MIC), Bc [7] [µg/mL]	Minimum Bactericidal and Fungicidal Concentration (MBC, MFC), Tm [9] [µg/mL]	Minimum Inhibitory Concentration (MIC), Tm [9] [µg/mL]	MIC [10, 13] [µg/mL]	Minimum Inhibitory Concentration (MIC), Ec [8] [µg/mL]	Minimum Bactericidal and Fungicidal Concentration (MBC, MFC), Ca ([10]; Ca) [µg/mL]	other results
CCCCCCCCCCCCCC[P+](C(C)(C)C)(C(C)(C)C)C(C)(C)C [Compound 14a]	62.5 ± 5.3	0.5 ± 0.04	7.8 ± 0.6	0.5 ± 0.03	1.9 ± 0.1	3.9 ± 0.2	1.9 ± 0.1	1.9 ± 0.1	1.9 ± 0.2	125 ± 11	15.6 ± 1.1	15.6 ± 1.3	7.8 ± 0.6	125 ± 10	125 ± 11	7.8 ± 0.6	–	–	MIC ([8]; Escherichia coli, ATCC25922, Ec, read-out: Minimum Inhibitory Concentration (MIC), Ec): 1.9 ± 0.1 µg/mL; MBC ([10]; Candida albicans, ATCC10231, Ca, read-out: Minimum Bactericidal and Fungicidal Concentration (MBC, MFC), Ca): 15.6 ± 1.2 µg/mL
CCCCCCCCCCCCCC[P+](C(C)(C)C)(C(C)(C)C)C(C)(C)C [Compound 14b]	0.5 ± 0.03	–	0.5 ± 0.03	–	3.9 ± 0.2	1.9 ± 0.1	0.9 ± 0.08	–	0.1 ± 0.008	–	–	–	0.9 ± 0.07	15.6 ± 1.3	15.6 ± 1.3	–	1.9 ± 0.1	15.6 ± 1.2	Minimum Inhibitory Concentration (MIC), MRSA-2 ([1]; MRSA-2 (resistant to beta-lactams)): 0.3 ± 0.02 µg/mL; Minimum Inhibitory Concentration (MIC), MRSA-1 ([2]; MRSA-1 (resistant to fluoroquinolones and beta-lactams)): 0.3 ± 0.01 µg/mL; Minimum Bactericidal and Fungicidal Concentration (MBC, MFC), Sa [5]: 1.9 ± 0.1 µg/mL; Minimum Bactericidal and Fungicidal Concentration (MBC, MFC), Pa ([6]; Pa): 62.5 ± 5.4 µg/mL; Minimum Inhibitory Concentration (MIC), Pa ([6]; Pa): 7.8 ± 0.6 µg/mL; Minimum Bactericidal and Fungicidal Concentration (MBC, MFC), Bc [7]: 15.6 ± 1.2 µg/mL; Minimum Inhibitory Concentration (MIC), Ca ([10]; Ca): 3.9 ± 0.3 µg/mL
CCCCCCCCCCCCCCC[P+](C(C)(C)C)(C(C)(C)C)C(C)(C)C [Compound 15a]	–	0.5 ± 0.04	–	0.5 ± 0.02	–	1.9 ± 0.1	–	0.5 ± 0.03	–	7.8 ± 0.6	7.8 ± 0.7	15.6 ± 1.3	–	–	–	1.9 ± 0.1	1.9 ± 0.1	3.9 ± 0.2	MBC ([1]; Staphylococcus aureus, MRSA, MRSA-2, read-out: Minimum Bactericidal and Fungicidal Concentration (MBC, MFC), MRSA-2): 0.5 ± 0.03 µg/mL; MBC ([2]; Staphylococcus aureus, MRSA, MRSA-1, read-out: Minimum Bactericidal and Fungicidal Concentration (MBC, MFC), MRSA-1): 0.5 ± 0.04 µg/mL; MBC ([3]; Escherichia coli, ATCC25922, Ec, read-out: Minimum Bactericidal and Fungicidal Concentration (MBC, MFC), Ec): 3.9 ± 0.2 µg/mL; MIC ([4]; Enterococcus faecalis, ATCC2921, Ef, read-out: Minimum Inhibitory Concentration (MIC), Ef): 0.5 ± 0.03 µg/mL; MIC ([5]; Staphylococcus aureus, Sa, read-out: Minimum Inhibitory Concentration (MIC), Sa): 0.2 ± 0.01 µg/mL; MIC ([7]; Bacillus cereus, Bc, read-out: Minimum Inhibitory Concentration (MIC), Bc): 0.5 ± 0.03 µg/mL; MBC ([9]; Trichophyton mentagrophytes, read-out: Minimum Bactericidal and Fungicidal Concentration (MBC, MFC), Tm): 62.5 ± 5.7 µg/mL; MIC ([9]; Trichophyton mentagrophytes, read-out: Minimum Inhibitory Concentration (MIC), Tm): 62.5 ± 5.3 µg/mL
